According to article PMC11521309, “A novel 4-aminoquinoline chemotype with multistage antimalarial activity and lack of cross-resistance with PfCRT and PfMDR1 mutants” (PLOS Pathogens, 2024):
Several values for one entry are separate records, joined by “and”; a condition that tells them apart may be missing. Identical values can stand only once.

Key:
[1] = Host cell confluency, Alamar Blue; format: cell-based, human; conditions: human, pH 7; maximum concentration of 4 μM; read-out: Huh-7 cell viability
Experimental: (§1) In vitro inhibition of Plasmodium liver stage infection was assessed using bioluminescence data from Huh-7 cells infected with a firefly-luciferase-expressing P. berghei line, PbGFP-Luccon, in the presence of various compound concentrations. […] One day before drug treatment and infection, 10^4 Huh-7 cells/well were seeded in 96-well plates. The medium was then replaced by an infection medium (culture medium supplemented with 50 μg/mL gentamycin and 0.8 μg/mL amphotericin B) containing desired concentrations of test compounds. Fresh sporozoites recovered from salivary glands of infected female Anopheles stephensi mosquitoes were added to seeded Huh-7 cells at a 1:1 proportion, followed by centrifugation at 1700g for 5 minutes and incubation for 46 hours at 37°C under 5% CO2. Compound toxicity against Huh-7 cells was assessed by measuring […] using the Alamar Blue assay (Invitrogen). IC50 values were calculated using nonlinear regression analysis (GraphPad Prism version 9).

Huh-7 cells = experiment: Host cell confluency, Alamar Blue; format: cell-based, human
Experimental: as §1

P. falciparum Dd2^H97Y = system: P. falciparum Dd2^H97Y; set-up: key: S: sensitive; R: resistant; conditions: ref [19],[20],[51]; cited from earlier work
P. falciparum FCB^KD1 = system: P. falciparum FCB^KD1; set-up: method as in ref 2 Sidhu et al. 2006; conditions: means ± SEM, N 4; ref 2 Sidhu et al. 2006; read-out: IC50 FCBKD1; cited from earlier work

SMILES | viability at 46 h, 4 µM [1] [%] | % Confluency (Huh-7 cells; 0.01 µM, Average) [%] | % Confluency (Huh-7 cells; 0.01 µM, Rep #1, Rep #2 singly, DMSO = 100) | % Confluency (Huh-7 cells; 0.10 µM, Average) [%] | % Confluency (Huh-7 cells; 0.10 µM, Rep #1, Rep #2 singly, DMSO = 100) | % Confluency (Huh-7 cells; 0.50 µM, Average) [%] | % Confluency (Huh-7 cells; 0.50 µM, Rep #1, Rep #2 singly, DMSO = 100) | % Confluency (Huh-7 cells; 1.00 µM, Average) [%] | % Confluency (Huh-7 cells; 1.00 µM, Rep #1, Rep #2 singly, DMSO = 100) | % Confluency (Huh-7 cells; 1.50 µM, Average) [%] | % Confluency (Huh-7 cells; 1.50 µM, Rep #2 only, DMSO = 100) [%] | % Confluency (Huh-7 cells; 2.00 µM, Average) [%] | % Confluency (Huh-7 cells; 2.00 µM, Rep #1, Rep #2 singly, DMSO = 100) | % Confluency (Huh-7 cells; 3.00 µM, Average) [%] | % Confluency (Huh-7 cells; 3.00 µM, Rep #1, Rep #2 singly, DMSO = 100) | % Confluency (Huh-7 cells; 4.00 µM, Average) [%] | % Confluency (Huh-7 cells; 4.00 µM, Rep #1 only, DMSO = 100) [%] | Phenotype, Dd2^H97Y (P. falciparum Dd2^H97Y) | IC50 (P. falciparum FCB^KD1) [nM]
COc1cc2nccc(Nc3cccc(Oc4ccccc4)c3)c2cc1OC [LDT-623] | > 86 | 101.66 | 99.85% and 103.48% | 101.70 | 101.55% and 101.85% | 106.57 | 104.91% and 108.24% | 99.74 | 99.78% and 99.70% | 103.34 | 103.34 | 99.65 | 99.68% and 99.63% | 92.74 | 93.69% and 91.80% | 86.71 | 86.71 |  | 
CCN(CC)CCCC(C)Nc1ccnc2cc(Cl)ccc12 (stereo not shown) [CQ, chloroquine] |  |  |  |  |  |  |  |  |  |  |  |  |  |  |  |  |  | R | 242 ± 43.9
